Data set [1] relates to carnitine level in skeletal muscle tissue. Nature of the data set: Carnitine levels in mouse tissues after i.p. peptide administration (commercial carnitine kit). Type of data set: in vivo, Male ICR mice. How it is done: (§1) Male ICR mice were injected i.p. with 250 mg/kg of the DY-65 peptide for 5 consecutive days. Half an hour after the last injection lung, heart, skeletal muscle (femural), brain, liver, kidney and blood were removed, homogenized (100 mg tissue in 200 μl distilled water), centrifuged and filtrated through 30K Microcon® filter. Carnitine analysis was carried out by a commercial kit (BIOVISION™, catalogue number K642-100). n=4 for each group.

For data set [2], the system named is carnitine level in other tissues, including liver and kidneys. Kind of data set: Carnitine levels in other mouse tissues (lung, heart, brain, liver, kidney, blood) after i.p. peptide administration. Type of data set: in vivo. The note with it: male ICR mice, 250 mg/kg i.p. for 5 consecutive days, tissues removed half an hour after last injection. How it is done:
as §1

Data set [3] in a line: Toxicity observation in mice treated with the peptide. In kind it is in vivo. The note with it: male ICR mice, 250 mg/kg i.p. for 5 consecutive days.

With “N-acetyl-Cys-Lys-Met-Cys-NH2 (Ac-CKMC-NH2; cysteine pairing not given here) [DY-65]”, the “elevation in the level of carnitine in skeletal muscle tissue” value in data set [1] (healthy male ICR mice, 250 mg/kg i.p. for 5 consecutive days, femural skeletal muscle removed half an hour after last injection, p<0.05, n=4) is recorded as “about 150%”. In addition, the “elevation in carnitine level in other tissues, including liver and kidneys” value in data set [2] was “did not demonstrate a significant elevation in carnitine level”. For the same substance, the toxicity effects result in data set [3] is “no toxicity effects were observed”.
On to “N-acetyl-Cys-Met-Lys-Cys-NH2 (Ac-CMKC-NH2; cysteine pairing not given here) [DY-70, reference compound]”, for which the “increased carnitine levels compared to baseline levels in any of the tissues examined” value in data set [1] (experiment of Example 1 repeated, all tissues examined (lung, heart, skeletal muscle, brain, liver, kidney, blood)) is given as “did not result in increased carnitine levels”.

(Values after patent US9499582B2, “Compositions and methods for increasing carnitine level in muscle tissue” (Oneday—Biotech And Pharma Ltd., priority 2012, dated 2016).)
